PMC7265341, “Quantifying CDK inhibitor selectivity in live cells” (Nature Communications, 2020)
Where two headings read alike, the source gives them in different places.

Legend:
CDK5/CDK5R1 = CDK5/CDK5R1 (Homo sapiens, UniProt Q00535); assay: NanoBRET live-cell target engagement, CDK5-NanoLuc/CDK5R1 in HEK-293; format: binding; conditions: CDK5/CDK5R1, 10µM
CDK20/Cyclin H = CDK20/Cyclin H (Homo sapiens, UniProt Q8IZL9); assay: NanoBRET live-cell target engagement, NanoLuc-CDK20/Cyclin H in HEK-293; format: binding; conditions: CDK20/H, 10µM
CDK3/Cyclin E1 = CDK3/Cyclin E1 (Homo sapiens, UniProt Q00526); assay: NanoBRET live-cell target engagement, CDK3-NanoLuc/Cyclin E1 in HEK-293; format: binding; conditions: CDK3/E1, 10µM
CDK17/Cyclin Y = CDK17/Cyclin Y (Homo sapiens, UniProt Q00537); assay: NanoBRET live-cell target engagement, CDK17-NanoLuc/Cyclin Y in HEK-293; format: binding; conditions: CDK17/Y, 10µM
CDK16/Cyclin Y = CDK16/Cyclin Y (Homo sapiens, UniProt Q00536); assay: NanoBRET live-cell target engagement, CDK16-NanoLuc/Cyclin Y in HEK-293; format: binding; conditions: CDK16/Y, 10µM
CDK11B/Cyclin L2 = CDK11B/Cyclin L2 (Homo sapiens, UniProt P21127); assay: NanoBRET live-cell target engagement, CDK11B-NanoLuc/Cyclin L2 in HEK-293; format: binding; conditions: CDK11b/L2, 10µM
CDK8/Cyclin C = CDK8/Cyclin C (Homo sapiens, UniProt P49336); assay: NanoBRET live-cell target engagement, NanoLuc-CDK8/Cyclin C in HEK-293; format: binding; conditions: CDK8/C, 10µM
Sequence of CDK8/Cyclin C (P49336 whole entry): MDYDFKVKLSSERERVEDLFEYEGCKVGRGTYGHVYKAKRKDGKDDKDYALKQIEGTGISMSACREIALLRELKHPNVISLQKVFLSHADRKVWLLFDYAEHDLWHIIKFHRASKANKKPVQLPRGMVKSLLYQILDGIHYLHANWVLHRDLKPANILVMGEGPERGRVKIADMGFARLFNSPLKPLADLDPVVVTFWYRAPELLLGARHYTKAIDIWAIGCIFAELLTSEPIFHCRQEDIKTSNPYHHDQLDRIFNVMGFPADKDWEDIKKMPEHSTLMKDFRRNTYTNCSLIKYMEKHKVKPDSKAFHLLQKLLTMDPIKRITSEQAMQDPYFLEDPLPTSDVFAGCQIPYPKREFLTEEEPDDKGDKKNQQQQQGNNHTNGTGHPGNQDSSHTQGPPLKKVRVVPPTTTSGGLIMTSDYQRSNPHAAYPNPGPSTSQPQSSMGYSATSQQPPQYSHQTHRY
Sequence of CDK8/Cyclin C (P24863 whole entry partner): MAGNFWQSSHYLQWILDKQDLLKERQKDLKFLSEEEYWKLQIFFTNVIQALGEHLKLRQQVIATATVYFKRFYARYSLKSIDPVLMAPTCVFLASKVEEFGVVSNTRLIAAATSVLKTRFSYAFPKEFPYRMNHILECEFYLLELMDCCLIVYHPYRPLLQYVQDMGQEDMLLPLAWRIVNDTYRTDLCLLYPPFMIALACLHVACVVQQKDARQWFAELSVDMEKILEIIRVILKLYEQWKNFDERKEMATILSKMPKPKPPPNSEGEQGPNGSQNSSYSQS

CDK15/Cyclin Y = CDK15/Cyclin Y (Homo sapiens, UniProt Q96Q40); assay: NanoBRET live-cell target engagement, NanoLuc-CDK15/Cyclin Y in HEK-293; format: binding; conditions: CDK15/Y, 10µM
CDK7 = CDK7 (Homo sapiens, UniProt P50613); assay: NanoBRET live-cell target engagement, NanoLuc-CDK7 in HEK-293; format: binding; conditions: CDK7, 10µM
CDK6/Cyclin D1 = CDK6/Cyclin D1 (Homo sapiens, UniProt Q00534); assay: NanoBRET live-cell target engagement, NanoLuc-CDK6/Cyclin D1 in HEK-293; format: binding; conditions: CDK6/D1, 10µM
Sequence of CDK6/Cyclin D1 (Q00534 whole entry): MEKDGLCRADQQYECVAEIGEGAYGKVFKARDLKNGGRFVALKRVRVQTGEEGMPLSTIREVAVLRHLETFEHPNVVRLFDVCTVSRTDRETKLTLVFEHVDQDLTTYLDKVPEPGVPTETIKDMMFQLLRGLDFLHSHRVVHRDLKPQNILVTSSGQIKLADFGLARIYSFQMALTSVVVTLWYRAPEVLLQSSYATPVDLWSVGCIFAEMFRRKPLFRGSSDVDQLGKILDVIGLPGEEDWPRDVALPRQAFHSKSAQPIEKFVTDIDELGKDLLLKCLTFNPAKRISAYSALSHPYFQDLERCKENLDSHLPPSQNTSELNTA
Sequence of CDK6/Cyclin D1 (P24385 whole entry partner): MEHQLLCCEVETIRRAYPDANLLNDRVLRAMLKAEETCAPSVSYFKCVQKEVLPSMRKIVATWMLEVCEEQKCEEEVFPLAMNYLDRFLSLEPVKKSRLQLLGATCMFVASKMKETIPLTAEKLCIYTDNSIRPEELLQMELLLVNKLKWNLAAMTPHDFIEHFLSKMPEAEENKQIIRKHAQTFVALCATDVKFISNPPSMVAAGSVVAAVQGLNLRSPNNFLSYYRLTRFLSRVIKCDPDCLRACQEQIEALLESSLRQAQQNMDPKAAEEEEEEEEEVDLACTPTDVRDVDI

CDK11A/Cyclin L2 = target: T1, CDK11A/Cyclin L2 (Homo sapiens, UniProt Q9UQ88); assay: NanoBRET live-cell target engagement, CDK11A-NanoLuc/Cyclin L2 in HEK-293; format: binding; conditions: CDK11a/L2, 10µM
T1 sequence (Q9UQ88 1-783): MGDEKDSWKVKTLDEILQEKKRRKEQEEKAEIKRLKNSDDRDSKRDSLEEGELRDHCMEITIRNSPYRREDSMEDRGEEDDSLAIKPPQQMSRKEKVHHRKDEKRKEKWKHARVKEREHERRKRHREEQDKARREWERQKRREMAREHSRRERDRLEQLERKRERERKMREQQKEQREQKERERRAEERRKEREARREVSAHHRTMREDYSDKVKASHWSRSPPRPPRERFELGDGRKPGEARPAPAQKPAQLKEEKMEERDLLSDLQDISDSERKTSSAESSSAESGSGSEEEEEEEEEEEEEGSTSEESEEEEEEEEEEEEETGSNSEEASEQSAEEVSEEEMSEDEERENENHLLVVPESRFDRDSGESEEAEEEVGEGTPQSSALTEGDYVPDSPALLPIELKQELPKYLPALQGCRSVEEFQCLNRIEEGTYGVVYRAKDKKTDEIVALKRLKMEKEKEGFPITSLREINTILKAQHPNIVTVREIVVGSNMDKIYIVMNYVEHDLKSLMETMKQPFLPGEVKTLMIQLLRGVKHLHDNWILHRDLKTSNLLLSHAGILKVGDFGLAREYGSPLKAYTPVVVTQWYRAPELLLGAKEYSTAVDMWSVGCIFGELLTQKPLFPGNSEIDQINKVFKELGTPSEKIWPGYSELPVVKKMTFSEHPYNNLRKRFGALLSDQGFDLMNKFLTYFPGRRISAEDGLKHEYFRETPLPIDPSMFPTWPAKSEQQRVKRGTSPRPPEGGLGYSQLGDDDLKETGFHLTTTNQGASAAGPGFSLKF

CDK4/Cyclin D1 = CDK4/Cyclin D1 (Homo sapiens, UniProt P11802); assay: NanoBRET live-cell target engagement, NanoLuc-CDK4/Cyclin D1 in HEK-293; format: binding; conditions: CDK4/D1, 10µM
Sequence of CDK4/Cyclin D1 (P11802 whole entry): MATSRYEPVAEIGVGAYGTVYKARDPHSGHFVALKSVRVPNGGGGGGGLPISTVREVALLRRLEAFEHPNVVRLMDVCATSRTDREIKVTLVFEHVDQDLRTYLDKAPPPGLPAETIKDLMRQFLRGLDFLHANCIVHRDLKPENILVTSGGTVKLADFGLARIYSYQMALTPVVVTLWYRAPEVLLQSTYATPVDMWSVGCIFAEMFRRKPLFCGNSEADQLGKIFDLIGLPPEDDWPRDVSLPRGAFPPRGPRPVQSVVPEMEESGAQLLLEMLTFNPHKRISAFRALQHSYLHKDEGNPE
Sequence of CDK4/Cyclin D1 (P24385 whole entry partner): as the sequence (P24385 whole entry partner) above

CDK12/Cyclin K = CDK12/Cyclin K (Homo sapiens, UniProt Q9NYV4); assay: NanoBRET live-cell target engagement, CDK12-NanoLuc/Cyclin K in HEK-293; format: binding; conditions: CDK12/K, 10µM
Sequence of CDK12/Cyclin K (Q9NYV4 1-1481 isoform Q9NYV4-2): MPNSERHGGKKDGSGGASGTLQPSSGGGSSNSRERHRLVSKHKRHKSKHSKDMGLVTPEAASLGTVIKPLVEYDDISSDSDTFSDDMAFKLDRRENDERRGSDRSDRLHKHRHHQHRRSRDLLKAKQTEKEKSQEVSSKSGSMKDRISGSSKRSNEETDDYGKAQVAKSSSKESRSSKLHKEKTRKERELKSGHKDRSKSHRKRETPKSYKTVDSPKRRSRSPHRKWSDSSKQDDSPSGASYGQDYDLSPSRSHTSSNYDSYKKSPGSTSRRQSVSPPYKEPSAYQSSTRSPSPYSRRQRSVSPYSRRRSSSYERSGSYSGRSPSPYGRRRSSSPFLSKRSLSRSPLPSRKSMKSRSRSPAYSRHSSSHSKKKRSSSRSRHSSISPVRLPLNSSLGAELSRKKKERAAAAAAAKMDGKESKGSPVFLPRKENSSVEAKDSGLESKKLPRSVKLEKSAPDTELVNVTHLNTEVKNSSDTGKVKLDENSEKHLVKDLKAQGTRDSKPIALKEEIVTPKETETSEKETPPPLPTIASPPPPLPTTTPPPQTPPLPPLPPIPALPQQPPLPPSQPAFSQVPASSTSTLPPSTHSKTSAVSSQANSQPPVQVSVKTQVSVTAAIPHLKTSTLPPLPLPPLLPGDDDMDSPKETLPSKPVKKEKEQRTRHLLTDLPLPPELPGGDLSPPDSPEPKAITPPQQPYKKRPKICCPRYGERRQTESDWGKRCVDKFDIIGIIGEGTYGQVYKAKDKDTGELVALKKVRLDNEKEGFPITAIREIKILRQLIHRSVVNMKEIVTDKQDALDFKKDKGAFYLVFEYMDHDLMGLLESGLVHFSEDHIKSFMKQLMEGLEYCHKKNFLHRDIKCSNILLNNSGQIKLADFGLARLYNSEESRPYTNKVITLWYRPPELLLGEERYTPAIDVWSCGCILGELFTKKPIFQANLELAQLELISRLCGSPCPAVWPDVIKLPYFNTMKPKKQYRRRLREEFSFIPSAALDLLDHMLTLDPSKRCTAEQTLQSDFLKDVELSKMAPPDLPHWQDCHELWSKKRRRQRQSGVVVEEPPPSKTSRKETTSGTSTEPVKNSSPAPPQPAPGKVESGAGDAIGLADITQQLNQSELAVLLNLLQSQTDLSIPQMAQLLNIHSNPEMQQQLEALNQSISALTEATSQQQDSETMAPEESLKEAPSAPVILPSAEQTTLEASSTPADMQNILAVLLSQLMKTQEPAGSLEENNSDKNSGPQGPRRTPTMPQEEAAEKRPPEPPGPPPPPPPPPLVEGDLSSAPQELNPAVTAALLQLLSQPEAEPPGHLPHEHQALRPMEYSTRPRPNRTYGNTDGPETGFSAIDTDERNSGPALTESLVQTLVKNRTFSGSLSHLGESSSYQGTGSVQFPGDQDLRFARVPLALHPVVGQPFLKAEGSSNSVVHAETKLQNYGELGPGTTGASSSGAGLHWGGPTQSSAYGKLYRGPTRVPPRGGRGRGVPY
Sequence of CDK12/Cyclin K (O75909 whole entry partner): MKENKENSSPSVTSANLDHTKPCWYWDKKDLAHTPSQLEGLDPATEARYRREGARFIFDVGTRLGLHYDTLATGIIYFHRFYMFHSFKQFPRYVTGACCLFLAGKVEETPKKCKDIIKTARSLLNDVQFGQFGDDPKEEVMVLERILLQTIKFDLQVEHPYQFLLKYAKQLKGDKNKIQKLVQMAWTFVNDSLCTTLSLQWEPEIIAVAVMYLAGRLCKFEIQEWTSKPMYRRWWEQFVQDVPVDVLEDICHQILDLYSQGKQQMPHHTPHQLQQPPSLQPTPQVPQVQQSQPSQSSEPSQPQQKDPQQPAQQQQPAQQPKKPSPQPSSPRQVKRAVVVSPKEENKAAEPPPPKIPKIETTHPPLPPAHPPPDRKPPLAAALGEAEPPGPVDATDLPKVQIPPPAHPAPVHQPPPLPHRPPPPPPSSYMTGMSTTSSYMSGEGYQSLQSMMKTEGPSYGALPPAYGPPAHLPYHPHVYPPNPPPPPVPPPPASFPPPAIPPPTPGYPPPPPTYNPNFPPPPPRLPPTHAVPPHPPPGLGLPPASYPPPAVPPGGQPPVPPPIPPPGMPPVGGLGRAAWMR

CDK18/Cyclin Y = CDK18/Cyclin Y (Homo sapiens, UniProt Q07002); assay: NanoBRET live-cell target engagement, CDK18-NanoLuc/Cyclin Y in HEK-293; format: binding
CDK9/Cyclin K = CDK9/Cyclin K (Homo sapiens, UniProt P50750); assay: NanoBRET live-cell target engagement, NanoLuc-CDK9/Cyclin K in HEK-293; format: binding; conditions: CDK9/K, 10µM
Sequence of CDK9/Cyclin K (P50750 whole entry): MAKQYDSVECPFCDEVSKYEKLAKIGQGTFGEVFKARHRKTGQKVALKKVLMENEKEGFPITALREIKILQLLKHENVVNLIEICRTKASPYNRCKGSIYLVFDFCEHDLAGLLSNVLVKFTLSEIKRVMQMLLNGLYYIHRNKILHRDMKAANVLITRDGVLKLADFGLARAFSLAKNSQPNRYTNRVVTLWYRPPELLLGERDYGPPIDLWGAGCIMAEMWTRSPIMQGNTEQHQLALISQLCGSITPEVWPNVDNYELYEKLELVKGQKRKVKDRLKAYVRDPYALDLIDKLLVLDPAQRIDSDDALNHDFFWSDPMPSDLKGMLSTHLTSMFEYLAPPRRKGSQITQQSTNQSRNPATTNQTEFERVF
Sequence of CDK9/Cyclin K (O75909 whole entry partner): as the sequence (O75909 whole entry partner) above

CDK13/Cyclin K = CDK13/Cyclin K (Homo sapiens, UniProt Q14004); assay: NanoBRET live-cell target engagement, CDK13-NanoLuc/Cyclin K in HEK-293; format: binding; conditions: CDK13/K, 10µM
CDK19/Cyclin C = CDK19/Cyclin C (Homo sapiens, UniProt Q9BWU1); assay: NanoBRET live-cell target engagement, NanoLuc-CDK19/Cyclin C in HEK-293; conditions: 10µM
Sequence of CDK19/Cyclin C (Q9BWU1 whole entry): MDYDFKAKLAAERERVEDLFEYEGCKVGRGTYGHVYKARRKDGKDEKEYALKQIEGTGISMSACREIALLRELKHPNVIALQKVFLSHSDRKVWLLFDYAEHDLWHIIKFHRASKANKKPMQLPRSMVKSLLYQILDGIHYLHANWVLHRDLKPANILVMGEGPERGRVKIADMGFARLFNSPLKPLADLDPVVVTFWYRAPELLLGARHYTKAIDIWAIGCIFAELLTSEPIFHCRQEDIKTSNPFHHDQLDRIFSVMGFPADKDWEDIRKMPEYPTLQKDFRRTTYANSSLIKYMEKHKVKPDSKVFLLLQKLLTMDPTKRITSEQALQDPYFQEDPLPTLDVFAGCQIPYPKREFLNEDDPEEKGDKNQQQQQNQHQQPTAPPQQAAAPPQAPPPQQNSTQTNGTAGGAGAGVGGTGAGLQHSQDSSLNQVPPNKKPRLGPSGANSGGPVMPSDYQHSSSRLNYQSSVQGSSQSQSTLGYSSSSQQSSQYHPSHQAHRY
Sequence of CDK19/Cyclin C (P24863 whole entry partner): as the sequence (P24863 whole entry partner) above

[1] = average of replicates, read-out: Inhibition at 10µM (%) Average
[2] = read-out: Inhibition at 10µM (%) Replicate 1
[3] = read-out: Inhibition at 10µM (%) Replicate 2

Compound: CCN1CCN(Cc2ccc(Nc3ncc(F)c(-c4cc(F)c5nc(C)n(C(C)C)c5c4)n3)nc2)CC1 [Abemaciclib]
- inhibition at 10 µM (CDK5/CDK5R1; [1]): 40.9%
- inhibition at 10 µM (CDK5/CDK5R1; [2]): 38%
- inhibition at 10 µM (CDK5/CDK5R1; [3]): 43.8%
- inhibition at 10 µM (CDK20/Cyclin H; [2]): 8.8%
- inhibition at 10 µM (CDK20/Cyclin H; [3]): 28.5%
- inhibition at 10 µM (CDK3/Cyclin E1; [1]): 62.2%
- inhibition at 10 µM (CDK3/Cyclin E1; [2]): 62.2%
- inhibition at 10 µM (CDK3/Cyclin E1; [3]): 62.3%
- inhibition at 10 µM (CDK17/Cyclin Y; [1]): 83%
- inhibition at 10 µM (CDK17/Cyclin Y; [2]): 83%
- inhibition at 10 µM (CDK17/Cyclin Y; [3]): 82.9%
- inhibition at 10 µM (CDK16/Cyclin Y; [2]): 86.3%
- inhibition at 10 µM (CDK16/Cyclin Y; [3]): 85.8%
- inhibition at 10 µM (CDK11B/Cyclin L2; [1]): 27.7%
- inhibition at 10 µM (CDK11B/Cyclin L2; [2]): 27.9%
- inhibition at 10 µM (CDK11B/Cyclin L2; [3]): 27.6%
- inhibition at 10 µM (CDK8/Cyclin C; [1]): 35.7%
- inhibition at 10 µM (CDK8/Cyclin C; [2]): 27.2%
- inhibition at 10 µM (CDK8/Cyclin C; [3]): 44.2%
- inhibition at 10 µM (CDK15/Cyclin Y; [1]): 57.4%
- inhibition at 10 µM (CDK15/Cyclin Y; [2]): 57.3%
- inhibition at 10 µM (CDK15/Cyclin Y; [3]): 57.5%
- inhibition at 10 µM (CDK7; [1]): 63.4%
- inhibition at 10 µM (CDK7; [2]): 65.2%
- inhibition at 10 µM (CDK7; [3]): 61.7%
- inhibition at 10 µM (CDK6/Cyclin D1; [1]): 99.4%
- inhibition at 10 µM (CDK6/Cyclin D1; [2]): 99.4%
- inhibition at 10 µM (CDK6/Cyclin D1; [3]): 99.4%
- inhibition at 10 µM (CDK11A/Cyclin L2; [1]): 21.8%
- inhibition at 10 µM (CDK11A/Cyclin L2; [2]): 19.9%
- inhibition at 10 µM (CDK11A/Cyclin L2; [3]): 23.7%
- inhibition at 10 µM (CDK4/Cyclin D1; [1]): 99.6%
- inhibition at 10 µM (CDK4/Cyclin D1; [2]): 100%
- inhibition at 10 µM (CDK4/Cyclin D1; [3]): 99%
- inhibition at 10 µM (CDK12/Cyclin K; [1]): 11.6%
- inhibition at 10 µM (CDK12/Cyclin K; [2]): 10.3%
- inhibition at 10 µM (CDK12/Cyclin K; [3]): 12.8%
- inhibition at 10 µM (CDK18/Cyclin Y; CDK18/Y, average of replicates, read-out: Inhibition at 10µM (%) Average): 74.8%
- inhibition at 10 µM (CDK18/Cyclin Y; CDK18/Y, read-out: Inhibition at 10µM (%) Replicate 1): 73.2%
- inhibition at 10 µM (CDK18/Cyclin Y; CDK18/Y, read-out: Inhibition at 10µM (%) Replicate 2): 76.3%
- IC50 (CDK18/Cyclin Y; CDK18/Y, read-out: IC50 (nM) Replicate 1): 304 nM
- IC50 (CDK18/Cyclin Y; IC50 (nM) Average*, CDK18/Y, n=3 average ± SEM, n=2 average to 2 significant figures): 380 ± 60 nM
- IC50 (CDK18/Cyclin Y; IC50 (nM) Replicate 2, CDK18/Y): 350 nM
- IC50 (CDK18/Cyclin Y; IC50 (nM) Replicate 3, CDK18/Y): 496 nM
- inhibition at 10 µM (CDK9/Cyclin K; [1]): 84.3%
- inhibition at 10 µM (CDK9/Cyclin K; [2]): 79.2%
- inhibition at 10 µM (CDK9/Cyclin K; [3]): 89.3%
- inhibition at 10 µM (CDK13/Cyclin K; [1]): 7.8%
- inhibition at 10 µM (CDK13/Cyclin K; [2]): 5.2%
- inhibition at 10 µM (CDK13/Cyclin K; [3]): 10.4%
- inhibition at 10 µM (CDK19/Cyclin C; read-out: Inhibition at 10µM (%) Average, CDK19/C, average of replicates): 40.7%
- inhibition at 10 µM (CDK19/Cyclin C; read-out: Inhibition at 10µM (%) Replicate 1, CDK19/C): 41.9%
- inhibition at 10 µM (CDK19/Cyclin C; read-out: Inhibition at 10µM (%) Replicate 2, CDK19/C): 39.5%
